Patent US20240350464A1, “METHODS OF TREATING NEUROLOGICAL, MUSCULAR, AND PROLIFERATIVE DISORDERS” (Elixira Pharma AG, priority 2023, published 2024)

Experiments:
Assay type in all cases: in vivo, Caenorhabditis elegans
[1] = tested on: N2 wild type worms; test: Microfluidic reproduction monitoring (egg laying start/end, reproductive span, eggs laid); conditions: for Eggs laid (#): average number of eggs laid per worm within the timespan of egg laying; for Eggs laid (#) / Egg laying end / Reproductive span: concentrations per Table 2; for Egg laying start: time from injection of L4 larvae until first egg, continuous exposure, concentrations per Table 2 (Cpd 1 100 μM, Cpd 2 25 mM); for Egg laying start / Egg laying end / Reproductive span: mean; for Egg laying end: time from injection of L4 larvae until last egg; for Reproductive span: timespan of egg laying; for Variation (%) of egg laying end (time of the last egg laid) / Variation (%) of egg laying start / Variation (%) of eggs laid / Variation (%) of reproductive span (timespan of egg laying): vs negative control DMSO 1%
Procedure: (§1) For the purpose of this study, the two compounds and four combinations of the two compounds were tested on a microfluidic platform. Worms were injected at the L4 larval stage, confined in dedicated microfluidic chambers, and continuously subjected to the presence of the two compounds, alone or in combination, from the L4 larval stage to the end of the experiment (corresponding to the day when the worm is dead). Acquisition of short sequences of videos for each microfluidic chamber containing worms were executed automatically every six (6) hours during the duration of the assay. The measurement of the motility, as well as the worm size to address compound toxicity (1) and the reproduction assessing longevity (2), were performed on the acquired sequences of videos by using an algorithm (3,4). Dead/live worms were identified automatically, based on the motility parameters. Each condition was tested in four technical replicates on different microfluidic cartridges. The experiment was performed once.
(§2) The proposed study was conducted according to the design and timeline depicted in FIG. 1. N2 wild-type C. elegans were grown on solid nematode growth medium (NGM) agar plates until the adult stage and harvested in complete S-Medium. Eggs from the adult population were hatched overnight in S-Medium and the resulting L1 progeny was recovered with a dedicated filter. L1 larvae were then collected through filtering in S-medium, seeded on NGM agar plates and grown for 48 hours (h) at 20° C. […] L4 larvae were then collected through filtering in 5 mL S-medium. 20 to 30 L4 were injected in the microfluidic chips for each condition. Worms were then continuously fed on-chip via bacterial medium, for the duration of the entire experiment. Videos of each micro-chamber were acquired after the feeding during the whole experiment, every 6 hours.
(§3) The two compounds, Compound 1 and Compound 2, were suspended in DMSO at the stock concentration of 100 mM and 2.5 M, respectively (Table 1). Compounds were then mixed with the bacterial medium at the targeted concentrations, alone or in combination (Table 2). For all tested conditions, the final vehicle (DMSO) concentration was 1%. For the negative control condition, nematodes were fed with a bacterial medium containing only the vehicle solution (DMSO 1%). All stock solutions were stored at −20° C. and dilutions were made freshly on the day of starting the on-chip experiment and then every 72 h to replace the compound/bacterial medium solutions.
Five time-resolved phenotypic readouts were extracted during the assays, including: • Worm size (area): this parameter was measured to evaluate the potential effects of the tested compound on growth retardation or larval arrest phenotype (7). • Sexual maturity: this parameter was measured to evaluate the potential effects of the tested compound on the timing required by a worm to reach the sexual maturity, determined by the observation of the first embryo (i.e., egg) produced in each microfluidic chamber.
Bar graphs represent mean+/−sem. p values were obtained by comparing the negative control (blue bars) versus the treatment via One-way ANOVA followed by Bonferroni's multiple comparisons test (p<0.05). * statistics versus the negative control (DMSO 1%).

[2] = tested on: N2 wild type worms; test: Microfluidic growth monitoring (worm size, area); conditions: for effect on the worm's size (in words): vs negative control; for Variation (%) of worm area AUC: vs negative control DMSO 1%
Procedure: as §1
The proposed study was conducted according to the design and timeline depicted in FIG. 1. N2 wild-type C. elegans were grown on solid nematode growth medium (NGM) agar plates until the adult stage and harvested in complete S-Medium. Eggs from the adult population were hatched overnight in S-Medium and the resulting L1 progeny was recovered with a dedicated filter. L1 larvae were then collected through filtering in S-medium, seeded on NGM agar plates and grown for 48 hours (h) at 20° C. After 48 h, the worm population had reached the L4 larval stage. […]
Five time-resolved phenotypic readouts were extracted during the assays, including: • Worm size (area): this parameter was measured to evaluate the potential effects of the tested compound on growth retardation or larval arrest phenotype (7). • Sexual maturity: this parameter was measured to evaluate the potential effects of the tested compound on the timing required by a worm to reach the sexual maturity, determined by the observation of the first embryo (i.e., egg) produced in each microfluidic chamber. This phenotype was also indicative for a general sterility phenotype (i.e., no egg produced) (7). • Worm fertility: this parameter was measured to evaluate the potential effects of the tested compound on the average number of eggs produced by each worm during the reproductive span, calculated via the images acquired during the assay (7). • Reproductive span: this parameter was measured to evaluate the potential effects of the tested compound on the duration in which the worms have reproductive ability, determined by the observation of the last embryo produced in each microfluidic chamber. • Worm longevity: this parameter was measured to evaluate the potential effects of the tested compound on the worm's survival. […]

[3] = tested on: N2 wild type worms; test: Microfluidic motility monitoring (head, midbody, tail amplitude, bending frequency, velocity); conditions: vs negative control; for overall motility: all motility parameters improved, in average: all 5 parameters
Procedure: as §1, §2, §3
Worm motility is an additional phenotypic readout, where five parameters of the motility were assessed every 6 hours from acquired videos (2 seconds long, 10 frames per second for each video). At each time point, the values recorded for dead worms were excluded. The five motility parameters monitored included (3): • the amplitude of the movement at the head • the amplitude of the movement at the middle of the worm body • the amplitude of tail movement • the worm bending frequency • the worm velocity
These motility parameters were analyzed by phases (Area Under the Curve calculation following by an 2-way ANOVA tests), as defined below: • Phase 1: from day 1 to day 5 • Phase 2: from day 6 to day 10 • Phase 3: from day 11 to day 15 • Phase 4: from day 16 to day 20

Compound | Eggs laid (#) [1] | Egg laying start [1] [h] | Egg laying end [1] [h] | Reproductive span [1] [h] | Variation (%) of egg laying end (time of the last egg laid) [1] | Variation (%) of egg laying start [1] [%] | Variation (%) of eggs laid [1] [%] | Variation (%) of reproductive span (timespan of egg laying) [1] | effect on the worm's size (in words) [2] | Variation (%) of worm area AUC [2] | overall motility: all motility parameters improved, in average [3] [%] | motility in Phase 1 (in words) ([3]; Phase 1 (D0 to D5)) | motility in Phase 2 (in words) ([3]; Phase 2 (D6 to D10)) | motility in Phase 3 (in words) ([3]; Phase 3 (D11 to D15)) | motility in Phase 4 (in words) ([3]; Phase 4 (D16 to D20)) | overall motility of the worms (in words) ([3]; 2-way ANOVA)
CO[C@H]1C[C@@H]2CC[C@@H](C)[C@@](O)(O2)C(=O)C(=O)N2CCCC[C@H]2C(=O)O[C@H]([C@H](C)C[C@@H]2CC[C@@H](O)[C@H](OC)C2)CC(=O)[C@H](C)/C=C(\C)[C@@H](O)[C@@H](OC)C(=O)[C@H](C)C[C@H](C)/C=C/C=C/C=C/1C [Cpd 1, rapamycin] | 96.6 # | 29.59 | 144.0 | 114.4 | −3.1% | −3.2 | −32.9 | −3.1% | significant improvement | +0.8% | 14 | – | – | – | – | –
CN(C)C(=N)N=C(N)N [Cpd 2, metformin] | 94.9 # | 29.63 | 152.7 | 123.1 | +2.8% | −3.1 | −34.1 | +4.3% | significant decrease | −3.3% | 22 | significant increase in almost all the motility parameters | significant increase in almost all the motility parameters | No effect on the motility | No effect on the motility | significantly increased
